Test results published in publication PMC4981850 (Scientific Reports, 2016).

Tests used:
[1] = biological target: T1, hDAT (human dopamine transporter) (Homo sapiens, UniProt Q01959); assay: two-electrode voltage clamp (-60 mV), Xenopus oocytes expressing hDAT, inward current; assay type: cell-based
T1 construct: gene SLC6A3

[2] = biological target: T1, hDAT (human dopamine transporter); assay: two-electrode voltage clamp (-60 mV), Xenopus oocytes expressing hDAT, block of transporter leak current; assay type: cell-based

T1 sequence (Q01959 whole entry): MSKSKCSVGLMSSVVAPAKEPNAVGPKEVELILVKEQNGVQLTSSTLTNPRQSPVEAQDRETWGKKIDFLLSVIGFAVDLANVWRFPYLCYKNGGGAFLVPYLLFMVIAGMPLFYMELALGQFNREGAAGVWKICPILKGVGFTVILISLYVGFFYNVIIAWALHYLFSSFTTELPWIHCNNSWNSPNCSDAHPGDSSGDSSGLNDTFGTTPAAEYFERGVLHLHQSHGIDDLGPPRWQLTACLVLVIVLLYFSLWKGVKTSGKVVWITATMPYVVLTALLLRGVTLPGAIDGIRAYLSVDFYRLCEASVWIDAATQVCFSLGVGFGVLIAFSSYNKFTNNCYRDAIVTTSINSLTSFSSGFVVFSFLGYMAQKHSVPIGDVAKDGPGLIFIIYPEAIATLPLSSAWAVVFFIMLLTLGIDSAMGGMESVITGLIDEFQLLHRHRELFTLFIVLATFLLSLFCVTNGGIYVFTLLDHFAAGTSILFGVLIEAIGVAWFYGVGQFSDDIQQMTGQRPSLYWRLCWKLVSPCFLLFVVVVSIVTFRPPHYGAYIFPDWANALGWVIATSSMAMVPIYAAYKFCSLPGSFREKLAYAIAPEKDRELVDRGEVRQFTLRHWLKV

| Structure (SMILES) | EC50 [1] | EC50 [2] |
| --- | --- | --- |
| C[C@@H]1NCCO[C@H]1c1ccccc1 [2S,3S(+)-PM, (2S,3S)-(+)-3-Methyl-2-phenylmorpholine] | 750 ± 140 nM |  |
| C[C@H]1[C@H](c2ccccc2)OCCN1C [2S,3S(+)-PDM, (2S,3S)-(+)-3,4-Dimethyl-2-phenylmorpholine] |  | 2560 ± 820 nM |
| C[C@H]1NCCO[C@@H]1c1ccccc1 [2R,3R(−)-PM, (2R,3R)-(+)-3-Methyl-2-phenylmorpholine] | 2630 ± 600 nM |  |
| C[C@@H]1[C@@H](c2ccccc2)OCCN1C [2R,3R(−)-PDM, (2R,3R)-(+)-3,4-Dimethyl-2-phenylmorpholine] |  | ~23500 nM |
